Values joined by “and” are separate entries in the source; they are usually repeats but may differ in a detail not shown here. Equal values may be shown once.
Assays:
[1] = tested on: MAC-1+ leukocytes adhering to the endothelium of the vein patch; experiment: en face immunofluorescence: MAC-1+ leukocyte adhesion to vein patch; format: in vivo, C57BL/6J mice; settings: 2 hours of preservation with db-cAMP vs without additive; 24 hours after operation; P<0.05
[2] = tested on: porcine venous graft (intimal hyperplasia); experiment: porcine vein graft model: % neointimal expansion (histomorphometry, Movat's stain); format: in vivo; settings: for C.% Neointimal Expansion Movat's Trichrome [100 * (neointima area/neointima area + lumen area], Left IJV Experimental: graft incubated 60 minutes in test solution before implantation, one animal per line; for % neointimal expansion (% NE) compared to contralateral venous graft and heparinized saline negative control: in words
Description: (§1) 6.4 The following experiments were performed to determine the ability of various compounds to preserve vein grafts before implantation in a porcine vein graft model. Briefly, the vein grafts were excised from the pig, incubated in solutions containing the various test compounds, implanted back into the pig and excised after a set period of days. The excised veins were then examined for a variety of factors to determine the protective effect of the various compounds.
All slides were also stained with hematoxylin and eosin (H&E) and Movat's Pentachrome stains in preparation for histomorphometry. Calculations based on morphometry measurements were made using Microsoft Excel® software. For histomorphometry, neointimal area, luminal area, and percentage of neointimal expansion (100×[neointimal area/neointimal area+luminal area) was calculated for each venous graft section and the mean for each vessel were calculated.
This study tested the ability of a variety of preservation solutions to retard chronic intimal hyperplasia and protect vein grafts from restenosis and obstruction in a porcine interpositional graft model. The markers of inflammation of interest in this study were CD31 (PECAM-1), CD54 (ICAM-1), and macrophages (L1 or Calprotectin) in formalin-fixed, paraffin-embedded porcine venous graft tissues. Specifically, a porcine internal jugular vein was end to side anastamosed to the ipsilateral carotid artery, following 60 minutes of incubation in heparinized saline (negative control), Phorbol Myristate Acetate (PMA) as positive control, or experimental solutions. In addition to the detection of macrophages with either L1 or Calprotectin antibodies, anti-CD31 was used to detect endothelial cells, and Movat's Trichrome stain, together with biomorphometry was used to measure the percent of intimal expansion. For detection of CD31, an anti-CD31 antibody was applied to formalin-fixed, paraffin-embedded porcine spleen at one dilution (1:50). This dilution of anti-CD-31 antibody had strong to intense staining of splenic endothelium (positive control material). In order to detect CD54, mouse antihuman CD54 antibody was applied at one concentration (50 μg/mL) to ICAM-1/CD54 ultraviolet light (UV) activated resin spot slides. There was strong to intense staining of the ICAM-1/CD54 UV activated resin spot slides with 50 μg/mL of anti-CD54 antibody. The detection of macrophages was performed by the application of one concentration (2 μg/mL) of mouse anti-human macrophages antibody to formalin-fixed, paraffin embedded porcine spleen. There was moderate staining of macrophages with 2 μg/mL of anti-macrophages antibody. […] All slides were also stained with hematoxylin and eosin (H&E) and Movat's Pentachrome stains in preparation for histomorphometry.

endothelial cells = settings: stated as known; cited from earlier work
[3] = tested on: jugular vein patch graft (neointimal hyperplasia); experiment: murine autologous arterialized vein patch model: neointimal expansion of vein grafts; format: in vivo, C57BL/6J mice; settings: vein patch preserved 2 hours at 25° C. in heparinized saline with additive (db-cAMP 2 mmol/L; 8-Br-cAMP 0.1 mmol/L; Rp-cAMPS 0.25 mmol/L), harvested postoperative day 21; mean ±SEM
[4] = tested on: macrophages on the intima of porcine venous graft; experiment: porcine vein graft model: macrophages on/in intima (anti-macrophage immunoperoxidase); format: in vivo; settings: for A.Average Number of Macrophages on/in Intima* (400X objective) MAC-1 Staining, Left IJV Experimental: graft incubated 60 minutes in test solution before implantation, one animal per line
Description: as §1
Anti-macrophage antibody: An indirect immunoperoxidase procedure was performed. Slides were treated with Declere antigen retrieval solution for 15 minutes followed by one rinse in phosphate-buffered saline (PBS) ([0.15M NaCl, pH 7.2]+0.05% Tween 20). Endogenous peroxidase activity was quenched by incubation with the peroxidase solution supplied in the Dako EnVision+ kit followed by two rinses in PBS (0.15M NaCl, pH 7.2)+0.05% Tween 20. The slides were then incubated for 20 minutes in a nonspecific protein block solution comprising 1% BSA and 1.5% normal goat serum in PBS (0.15M NaCl, pH 7.2)+0.05% Tween 20 followed by incubation with primary antibody for 1 hour. After two PBS (0.15M NaCl, pH 7.2)+0.05% Tween 20 rinses, the slides were treated with the Dako EnVision+ peroxidase labeled polymer for 30 minutes. The slides were rinsed twice with PBS (0.15M NaCl, pH 7.2)+0.05% Tween 20 and treated with Dako substrate-chromogen solution for 8 minutes. The slides were then rinsed in tap water, counterstained with hematoxylin, and blued with lithium chloride. Finally, the slides were dehydrated in increasing concentrations of alcohol, cleared with xylene, and mounted for interpretation. PBS (0.15M NaCl, pH 7.2)+0.05% Tween 20+1% BSA served as the diluent for all antibodies. All rinses were performed with PBS (0.15M NaCl, pH 7.2) supplemented with 0.05% Tween 20.
For the anti-macrophage antibody, all slides were judged for adequacy of tissue elements and staining and read blind by the Study Pathologist to quantify the number of macrophages on the intima of the porcine venous graft tissues. The quantification was performed by counting at 400× the number of positively stained macrophages in and on the intima of each section of venous graft tissue in 10 fields and then taking the average number of macrophages per field for each section. A mean score among the four venous graft sections for each test group was calculated.
(§2) This study tested the ability of a variety of preservation solutions to retard chronic intimal hyperplasia and protect vein grafts from restenosis and obstruction in a porcine interpositional graft model. The markers of inflammation of interest in this study were CD31 (PECAM-1), CD54 (ICAM-1), and macrophages (L1 or Calprotectin) in formalin-fixed, paraffin-embedded porcine venous graft tissues. Specifically, a porcine internal jugular vein was end to side anastamosed to the ipsilateral carotid artery, following 60 minutes of incubation in heparinized saline (negative control), Phorbol Myristate Acetate (PMA) as positive control, or experimental solutions. In addition to the detection of macrophages with either L1 or Calprotectin antibodies, anti-CD31 was used to detect endothelial cells, and Movat's Trichrome stain, together with biomorphometry was used to measure the percent of intimal expansion. For detection of CD31, an anti-CD31 antibody was applied to formalin-fixed, paraffin-embedded porcine spleen at one dilution (1:50). This dilution of anti-CD-31 antibody had strong to intense staining of splenic endothelium (positive control material). In order to detect CD54, mouse antihuman CD54 antibody was applied at one concentration (50 μg/mL) to ICAM-1/CD54 ultraviolet light (UV) activated resin spot slides. There was strong to intense staining of the ICAM-1/CD54 UV activated resin spot slides with 50 μg/mL of anti-CD54 antibody. […]

[5] = tested on: endothelium (CD31) of porcine venous graft; experiment: porcine vein graft model: endothelialization score (CD31 staining); format: in vivo; settings: for endothelialization of treated venous graft compared to control contralateral venous graft: in words, based on slightly higher endothelialization scores; for B.Endothelialization Score CD31 Staining, Left IJV Experimental: mean score on 0-5 scale, graft incubated 60 minutes in test solution before implantation, one animal per line
Description: as §1
Anti-CD31 antibody: An indirect immunoperoxidase procedure was performed. Slides were treated with Declere antigen retrieval solution for 15 minutes followed by two rinses in phosphate-buffered saline (PBS [0.15M NaCl, pH 7.2]+0.05% Tween 20). The slides were then treated with 3% hydrogen peroxide to block endogenous peroxidase activity. After two PBS (0.15M NaCl, pH 7.2)+0.05% Tween 20 rinses, the slides were incubated for 20 minutes in a nonspecific protein block comprising 1% BSA, 1.5% normal horse serum, and 5% milk in PBS (0.15M NaCl, pH 7.2)+0.05% Tween 20. The slides were then incubated with primary antibody for 2 hours at 37° C. followed by two PBS (0.15M NaCl, pH 7.2)+0.05% Tween 20 rinses. The biotinylated secondary antibody was then added and incubated for 30 minutes. After two rinses in PBS (0.15M NaCl, pH 7.2)+0.05% Tween 20, the slides were treated with ABC reagent for 30 minutes followed by two PBS (0.15M NaCl, pH 7.2)+0.05% Tween 20 rinses. The slides were incubated with stable DAB substrate for 6 minutes, rinsed in tap water, counterstained with hematoxylin, and blued with lithium chloride. Finally, all slides were dehydrated in increasing concentrations of alcohol, cleared with xylene, and mounted for interpretation. PBS (0.15M NaCl, pH 7.2)+0.05% Tween 20+1% BSA served as the diluent for the primary antibody and ABC reagent. The diluent for the secondary antibody also contained 1% milk. All rinses were performed with PBS (0.15M NaCl, pH 7.2) supplemented with 0.05% Tween 20.
For the anti-CD31 antibody, all slides were judged for adequacy of tissue elements and staining and read blind by the Study Pathologist to quantify the degree of endothelialization of each section of venous graft tissue using the following scale: 0=no endothelialization, 1=less than 25% endothelialization, 2=25-50% endothelialization, 3=51-75% endothelialization, 4=greater than 75% endothelialization, 5=complete endothelialization. A mean score among the four venous graft sections for each test group was calculated.
as §2

porcine venous graft = experiment: porcine vein graft model: graft occlusion at explant; format: in vivo; parameters: key: SO = substantially occluded; settings: graft incubated 60 minutes in test solution before implantation; one animal per line
Description: as §1
This study tested the ability of a variety of preservation solutions to retard chronic intimal hyperplasia and protect vein grafts from restenosis and obstruction in a porcine interpositional graft model. The markers of inflammation of interest in this study were CD31 (PECAM-1), CD54 (ICAM-1), and macrophages (L1 or Calprotectin) in formalin-fixed, paraffin-embedded porcine venous graft tissues. Specifically, a porcine internal jugular vein was end to side anastamosed to the ipsilateral carotid artery, following 60 minutes of incubation in heparinized saline (negative control), Phorbol Myristate Acetate (PMA) as positive control, or experimental solutions. In addition to the detection of macrophages with either L1 or Calprotectin antibodies, anti-CD31 was used to detect endothelial cells, and Movat's Trichrome stain, together with biomorphometry was used to measure the percent of intimal expansion. […]

Row | Compound | MAC-1+ cells adhered to the surface of vein patch [1] | C.% Neointimal Expansion Movat's Trichrome [100 * (neointima area/neointima area + lumen area], Left IJV Experimental [2] | % neointimal expansion (% NE) compared to contralateral venous graft and heparinized saline negative control [2] | db cAMP concentrations that become toxic to endothelial cells (endothelial cells) | neointimal expansion [3] | A.Average Number of Macrophages on/in Intima* (400X objective) MAC-1 Staining, Left IJV Experimental [4] | macrophage scores of treated venous graft compared to contralateral venous graft ([4]; in words) | endothelialization of treated venous graft compared to control contralateral venous graft [5] | B.Endothelialization Score CD31 Staining, Left IJV Experimental [5] | graft status printed in place of a value (Left IJV Experimental) (porcine venous graft)
1 | CCCC(=O)Nc1ncnc2c1ncn2[C@@H]1O[C@@H]2COP(=O)(O)O[C@H]2[C@H]1OC(=O)CCC [db-cAMP, N^6,2′-O-dibutyryl adenosine 3′,5′-cyclic monophosphate] | markedly decreased | 55.6% | large and significant increase | higher than 4 mM | 51.0%±4.7% | 0.025 | decreases | better endothelialization | 5 | 
2 | O=C1CCC(N2C(=O)c3ccccc3C2=O)C(=O)N1 (centres unmarked) [Thalidomide] |  | 78.2% and 80.0% |  |  |  | 1.15 and 1.45 |  |  | 4.75 and 4.5 | 
3 | Cc1[nH]c(=O)c(C#N)cc1-c1ccncc1 [Milrinone (PDSIII), Milrinone] |  | 70.4% |  |  |  | 0 |  | better endothelialization | 5 | SO
4 | CCCCCCCCCCCCCC(=O)O[C@@H]1[C@@H](C)[C@@]2(O)[C@@H](C=C(CO)C[C@]3(O)C(=O)C(C)=C[C@@H]23)[C@@H]2C(C)(C)[C@]12OC(C)=O [PMA, Phorbol Myristate Acetate] |  | 78.9% and 78.8% | slight increase |  |  | 0 and 3.55 |  |  | 4.5 and 5 | 
5 | Enbrel |  |  |  |  |  |  |  |  |  | SO
6 | Lipopolysaccaride |  | 77.7% |  |  |  | 1.575 |  |  | 4.75 | 
7 | Nc1ncnc2c1nc(Br)n2[C@@H]1O[C@@H]2COP(=O)(O)O[C@H]2[C@H]1O [8-Br-cAMP, 8-bromo-adenosine 3′,5′-cyclic monophosphate] |  |  |  |  | 44.3%±5.0% |  |  |  |  | 

Reference: patent publication US20060134073A1, “Compositions and methods for ex vivo preservation of blood vessels for vascular grafts using analogues of cAMP and cGMP” (priority 2004, published 2006)
